Measurements from BindingDB's records for doi:10.1021/jm00171a003 (Merck, 1990).
Numbered stars: 1 amine (or outer) side, 2 acyl side, 3 side chain; on linkers, the order of the positions; unused ones are H or OH. Square brackets hold non-standard residues; d marks the D form. Peptide text beside a SMILES is read from it. X6 = CN(C)C[C@H]1C=NN([*:1])[C@H](C(=O)[*:2])C1; X5 = O=C1CC[C@@H](C(=O)[*:2])N([*:1])N1; dPiz(1,6-dehydro) = O=C(O)[C@H]1CCC=NN1; X2 = CN1CCC[C@@H](C(=O)[*:2])N1[*:1]; X1 = CN1CCC[C@H](C(=O)[*:2])N1[*:1]; X7 = O=C([C@@H]1C=CC=NN1[*:1])[*:2]; X3 = O=C([C@H]1CCCNN1[*:1])[*:2]; dNMeF = CN[C@H](Cc1ccccc1)C(=O)O

Each compound was assayed against Vasopressin V1a receptor (Rattus norvegicus) (UniProt P30560) (assay: Binding affinity against Vasopressin receptor in rat liver).
Vasopressin V1a receptor (Rattus norvegicus), sequence (P30560 whole entry, looked up): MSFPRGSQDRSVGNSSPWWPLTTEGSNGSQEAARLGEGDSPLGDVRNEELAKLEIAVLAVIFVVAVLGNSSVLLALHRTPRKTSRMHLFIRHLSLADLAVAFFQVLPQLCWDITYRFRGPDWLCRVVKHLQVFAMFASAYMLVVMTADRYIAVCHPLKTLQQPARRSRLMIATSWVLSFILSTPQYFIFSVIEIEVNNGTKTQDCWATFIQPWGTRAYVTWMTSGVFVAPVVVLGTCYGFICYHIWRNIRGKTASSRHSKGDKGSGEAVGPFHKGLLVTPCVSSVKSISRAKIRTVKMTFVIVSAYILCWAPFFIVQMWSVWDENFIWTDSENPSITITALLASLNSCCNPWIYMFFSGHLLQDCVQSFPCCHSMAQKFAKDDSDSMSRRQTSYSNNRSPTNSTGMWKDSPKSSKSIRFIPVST
For `CC[C@H](C)[C@@H]1NC[C@@H](Cc2ccccc2)NC(=O)[C@@H]2CCCN2C(=O)[C@@H](Cc2ccccc2)N(C)C(=O)[C@@H]2CCC=NN2C(=O)[C@H]2CCC=NN2C1=O`, the Ki was > 30000 nM.
`CC[C@H](C)[C@@H]1NC(=O)[C@@H](Cc2ccccc2)NC(=O)[C@@H]2CCCN2C(=O)[C@@H](Cc2ccccc2)N(C)C(=O)[C@@H]2CCCN(C)N2C(=O)[C@H]2CCCN(C)N2C1=O` (cyclo(I[X1][X2][dNMeF]P[dF])) showed a Ki of 7400 nM.
Work on `CC[C@H](C)[C@@H]1NC(=O)[C@@H](Cc2ccccc2)NC(=O)[C@@H]2CCCN2C(=O)[C@@H](Cc2ccccc2)N(C)C(=O)[C@@H]2C[C@@H](CN(C)C)C=NN2C(=O)[C@H]2CCC=NN2C1=O` (cyclo(I[dPiz(1,6-dehydro)][X6][dNMeF]P[dF])) yielded a Ki of 550 nM.
For `CC[C@H](C)[C@H]1C(=O)N2NCCC[C@@H]2C(=O)N2NCCC[C@H]2C(=O)N(C)[C@H](Cc2ccccc2)C(=O)N2CCC[C@H]2C(=O)N[C@H](Cc2ccccc2)C(=O)N1O`, the Ki was 2200 nM.
`CC[C@H](C)[C@@H]1NC(=O)[C@@H](Cc2ccccc2)NC(=O)[C@@H]2CCCN2C(=O)[C@@H](Cc2ccccc2)N(C)C(=O)[C@@H]2C=CC=NN2C(=O)[C@H]2CCC=NN2C1=O` (cyclo(I[dPiz(1,6-dehydro)][X7][dNMeF]P[dF])) gave a Ki of 390 nM.

Target: Vasopressin V1a receptor (Rattus norvegicus) (UniProt P30560)
Assay: as above
Remark: another data set of the same source
Compound `CC[C@H](C)[C@@H]1NC(=O)[C@@H](Cc2ccccc2)NC(=O)[C@@H]2CCCN2C(=O)[C@@H](Cc2ccccc2)N(C)C(=O)[C@@H]2CCC(=O)NN2C(=O)[C@H]2CCC=NN2C1=O` (cyclo(I[dPiz(1,6-dehydro)][X5][dNMeF]P[dF])) has a Ki of 1600 nM.
Compound `CC[C@H](C)[C@@H]1NC(=O)[C@@H](Cc2ccccc2)NC(=O)[C@@H]2CCCN2C(=O)[C@@H](Cc2ccccc2)N(C)C(=O)[C@@H]2CCC(=O)NN2C(=O)[C@H]2CCCNN2C1=O` (cyclo(I[X3][X5][dNMeF]P[dF])) has a Ki of 3900 nM.
Compound `CC[C@@H](C)[C@@H]1NC(=S)[C@@H](Cc2ccccc2)NC(=O)[C@@H]2CCCN2C(=O)[C@@H](Cc2ccccc2)N(C)C(=O)[C@@H]2CCC=NN2C(=O)[C@H]2CCC=NN2C1=O` has a Ki of 140 nM.
